From patent publication US8796244B2, “Imidazopyridine derivatives as inhibitors of receptor tyrosine kinases” (Astex Therapeutics Ltd, priority 2008, dated 2014)
Blank lines part the entries; values can stand above or below the compound they belong to.

What was measured:
[1] = tested on: parental wild-type Ba/F3 cells; experiment: Ba/F3 (WT) cell proliferation assay (Alamar Blue); type: cell-based; settings: Mus musculus; for inhibition at 3 µM / inhibition at 1 µM / inhibition at 10 µM: BaF3, read-out: BaF3 WT prolif, % inhibition; for IC50: BaF3, 72 hours, Alamar Blue, read-out: BaF3 WT prolif
[2] = tested on: LP-1 cell line (FGF-1/Heparin induced pERK); experiment: Cell-based pERK ELISA, LP-1 cells; settings: Homo sapiens, LP-1, read-out: LP-1 pERK ELISA (μM)
[3] = biological target: VEGFR2 (Homo sapiens (Human), UniProt P35968); experiment: VEGFR2 in vitro kinase inhibitory activity assay (TRF, Flt3 substrate); type: biochemical; settings: for inhibition at 1 µM: 1 h, read-out: VEGFR2 % I
Sequence of VEGFR2 (P35968 20-1356): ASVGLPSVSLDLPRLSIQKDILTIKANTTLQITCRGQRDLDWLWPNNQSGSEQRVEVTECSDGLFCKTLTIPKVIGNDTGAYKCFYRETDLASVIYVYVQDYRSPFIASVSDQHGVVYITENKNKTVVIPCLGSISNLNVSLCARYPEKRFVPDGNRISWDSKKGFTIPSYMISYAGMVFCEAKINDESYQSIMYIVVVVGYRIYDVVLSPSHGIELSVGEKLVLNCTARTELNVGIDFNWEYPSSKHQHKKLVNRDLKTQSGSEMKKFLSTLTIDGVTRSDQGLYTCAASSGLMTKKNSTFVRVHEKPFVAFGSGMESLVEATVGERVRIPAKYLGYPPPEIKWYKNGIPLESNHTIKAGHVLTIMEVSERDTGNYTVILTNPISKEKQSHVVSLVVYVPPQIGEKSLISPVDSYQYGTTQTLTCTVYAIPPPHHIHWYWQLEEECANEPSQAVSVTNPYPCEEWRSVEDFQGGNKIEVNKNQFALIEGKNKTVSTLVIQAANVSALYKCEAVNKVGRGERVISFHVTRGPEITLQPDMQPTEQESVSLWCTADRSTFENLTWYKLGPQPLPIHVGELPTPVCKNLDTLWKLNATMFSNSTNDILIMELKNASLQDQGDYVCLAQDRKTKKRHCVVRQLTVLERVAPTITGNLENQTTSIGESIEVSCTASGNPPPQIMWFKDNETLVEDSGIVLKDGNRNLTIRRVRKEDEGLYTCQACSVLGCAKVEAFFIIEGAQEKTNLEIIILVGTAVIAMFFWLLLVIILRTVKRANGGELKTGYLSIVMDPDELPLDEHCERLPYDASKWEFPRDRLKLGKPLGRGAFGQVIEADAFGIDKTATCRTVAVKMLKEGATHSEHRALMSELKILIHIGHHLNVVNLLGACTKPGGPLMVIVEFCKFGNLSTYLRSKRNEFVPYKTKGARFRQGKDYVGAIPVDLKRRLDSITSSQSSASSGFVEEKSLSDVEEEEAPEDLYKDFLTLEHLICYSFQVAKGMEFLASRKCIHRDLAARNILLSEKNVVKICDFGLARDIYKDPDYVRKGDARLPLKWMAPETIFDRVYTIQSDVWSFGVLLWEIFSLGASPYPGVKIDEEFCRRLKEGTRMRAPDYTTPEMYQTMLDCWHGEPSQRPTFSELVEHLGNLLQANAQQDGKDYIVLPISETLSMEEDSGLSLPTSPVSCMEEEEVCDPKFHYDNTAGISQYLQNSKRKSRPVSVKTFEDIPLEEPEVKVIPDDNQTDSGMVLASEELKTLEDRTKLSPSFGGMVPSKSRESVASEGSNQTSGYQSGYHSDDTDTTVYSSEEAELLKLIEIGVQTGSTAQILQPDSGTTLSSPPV

[4] = tested on: Ba/F3-TEL-FGFR3 cells; experiment: Ba/F3-TEL-FGFR3 cell proliferation assay (Alamar Blue); type: cell-based; settings: 72 hours, Alamar Blue; read-out: BaF3-TEL-FGFR3 prolif
[5] = biological target: FGFR3 (Homo sapiens (Human), UniProt P22607); experiment: FGFR3 in vitro kinase inhibitory activity assay (TRF); settings: 3 h, read-out: FGFR3 % I
Sequence of FGFR3 (P22607 23-806): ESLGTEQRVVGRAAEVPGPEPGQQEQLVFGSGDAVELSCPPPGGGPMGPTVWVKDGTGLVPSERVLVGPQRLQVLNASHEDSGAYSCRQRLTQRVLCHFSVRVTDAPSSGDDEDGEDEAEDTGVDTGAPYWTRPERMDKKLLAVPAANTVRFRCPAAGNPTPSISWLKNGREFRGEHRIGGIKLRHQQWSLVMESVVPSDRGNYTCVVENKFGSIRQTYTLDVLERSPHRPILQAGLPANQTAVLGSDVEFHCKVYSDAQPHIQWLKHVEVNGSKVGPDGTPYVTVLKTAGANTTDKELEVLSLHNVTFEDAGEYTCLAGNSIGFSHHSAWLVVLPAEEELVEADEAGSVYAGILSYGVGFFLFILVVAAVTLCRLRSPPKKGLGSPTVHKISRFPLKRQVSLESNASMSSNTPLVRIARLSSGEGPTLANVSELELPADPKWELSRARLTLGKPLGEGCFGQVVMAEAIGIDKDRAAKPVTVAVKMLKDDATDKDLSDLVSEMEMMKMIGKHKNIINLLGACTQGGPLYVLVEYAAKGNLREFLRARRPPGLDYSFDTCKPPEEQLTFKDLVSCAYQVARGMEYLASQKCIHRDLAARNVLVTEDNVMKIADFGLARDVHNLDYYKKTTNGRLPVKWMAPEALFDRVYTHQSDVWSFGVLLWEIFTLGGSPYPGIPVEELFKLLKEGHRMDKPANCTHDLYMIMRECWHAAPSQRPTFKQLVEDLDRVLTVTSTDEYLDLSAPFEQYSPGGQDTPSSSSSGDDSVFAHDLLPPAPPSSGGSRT

Structure (SMILES): O=C(NCC(F)(F)F)Nc1cccc(-c2cnc3cc(-c4nnc(NC5CC5)s4)ccn23)c1 [Compound 250]
- inhibition at 3 µM [1]: 25%
- IC50 [1]: 1730 nM
- melting point: > 280 °C
- IC50 [2]: 0.075 µM

Structure (SMILES): COc1cc(NC(=O)NCC(F)(F)F)cc(-c2cnc3cc(-c4ncc(F)c(N)n4)ccn23)c1 [Compound 252]
- IC50 [3]: > 1000 nM
- inhibition at 1 µM [1]: 0%
- melting point: 154 °C

Structure (SMILES): Nc1nc(-c2ccn3c(-c4cc(NC(=O)NCC(F)(F)F)cc(C(F)(F)F)c4)cnc3c2)ncc1F [Compound 258]
- inhibition at 1 µM [3]: 37%
- inhibition at 3 µM [1]: 36%
- melting point: 185 °C

Structure (SMILES): O=C(NCC(F)(F)F)Nc1cccc(-c2cnc3cc(C#Cc4nccn4CCO)ccn23)c1 [Compound 262]
- inhibition at 10 µM [1]: 20%
- melting point: 228 °C

Structure (SMILES): CCNC(=O)Nc1cccc(-c2cnc3cc(C#Cc4cncn4C)ccn23)c1 [Compound 264]
- inhibition at 10 µM [1]: 25%
- melting point: 163 °C
- IC50 [2]: 0.31 µM

- IC50 [3]: > 30000 nM
- melting point: > 250 °C
Structure (SMILES): Cn1cncc1C#Cc1ccn2c(-c3cncc(NC(=O)NCC(F)(F)F)c3)cnc2c1 [Compound 265]

Structure (SMILES): Cn1cncc1C#Cc1ccn2c(-c3cccc(NC(N)=O)c3)cnc2c1 [Compound 267]
- inhibition at 10 µM [1]: 55%
- melting point: 162 °C

Structure (SMILES): NC(=O)Nc1cccc(-c2cnc3cc(-c4nncs4)ccn23)c1 [Compound 268]
- inhibition at 3 µM [1]: 23.5%
- melting point: 259 °C
- IC50 [2]: 1.83 µM

Structure (SMILES): O=C(NCC(F)(F)F)Nc1cccc(-c2cnc3cc(-c4nccc(N5CCN(CCO)CC5)n4)ccn23)c1 [Compound 270]
- inhibition at 3 µM [1]: 16%
- melting point: 179.8 °C

- IC50 [4]: 63 nM
- melting point: 80 °C
- inhibition at 0.001 µM [5]: 59%
Structure (SMILES): NCC1CCN(c2ccc(-c3ccn4c(-c5cccc(NC(=O)NCC(F)(F)F)c5)cnc4c3)cn2)CC1 [Compound 271]
- IC50 [1]: 120 nM

- IC50 [4]: 51 nM
- melting point: 145 °C
- inhibition at 0.00097 µM [5]: 51%
Structure (SMILES): CN(C)S(=O)(=O)NCC1CCN(c2ccc(-c3ccn4c(-c5cccc(NC(=O)NCC(F)(F)F)c5)cnc4c3)cn2)CC1 [Compound 272]
- IC50 [1]: 200 nM

Structure (SMILES): CC(C)COC(=O)Nc1nc(-c2ccn3c(-c4cccc(NC(=O)NCC(F)(F)F)c4)cnc3c2)ncc1F [Compound 273]
- inhibition at 1 µM [3]: 40%
- inhibition at 10 µM [1]: 43%
- melting point: 215.2 °C

- inhibition at 1 µM [3]: 55%
- melting point: 190 °C
Structure (SMILES): NCc1cc(NC(=O)NCC(F)(F)F)cc(-c2cnc3cc(-c4ccnc(C(F)(F)F)n4)ccn23)c1 [Compound 274]

Structure (SMILES): O=C(NCC(F)(F)F)Nc1cccc(-c2cnc3cc(-c4ncc(CO)cn4)ccn23)c1 [Compound 276]
- inhibition at 1 µM [1]: 0%
- melting point: 222 °C

Structure (SMILES): CC(O)c1cnc(-c2ccn3c(-c4cccc(NC(=O)NCC(F)(F)F)c4)cnc3c2)nc1 (stereo not shown) [Compound 278]
- inhibition at 1 µM [1]: 0%
- melting point: 224 °C

Structure (SMILES): CS(=O)(=O)Nc1nc(-c2ccn3c(-c4cccc(NC(=O)NCC(F)(F)F)c4)cnc3c2)ncc1F [Compound 279]
- inhibition at 10 µM [1]: 7%
- melting point: > 350 °C
